The values that follow are results of earlier work, collected in patent US20020155083A1, “Dermal regeneration methods and compositions related thereto in conjunction with laser phototherapy, microdermabrasion and epidermabrasion” (priority 2001, published 2002).

Ends that are not written are not given here.

Data set [1] relates to BCO, Candida, or Cryptococcus. To be noted: immunosuppressed mice infected with BCO.
Data set [2] concerns influenza virus. To be noted: in combination with amantadine and interferon; mice infected with the influenza virus.
Data set [3] deals with interferon (IFN). To be noted: mouse, in vivo.
For data set [4], the system named is C. albicans, Listeria monocytogenes, Pseudomonas aeruginosa, and Serratia marescens. To be noted: 5-fluorouracil (5FU)- or morphine-immunosuppressed mice, injection.
Data set [5] concerns Candida albicans. As to conditions: mice, injection.

In the case of “thymosin α1 (SDAAVDTSSEITTKDLKEKKEVVEEAEN; ends and bridges not checked; UniProt P06454 2-29, looked up) [Tα1]”, in data set [1], the survival rate entry is “increased survival rate”. In data set [2], the long term survival result was “significantly increase” and the “viral titers in the lungs” value is “reduce viral titers”. In addition, in data set [3], the “amount of interferon (IFN) produced” value is “significant rise”. Also, the “protection against opportunistic infections” value in data set [4] is listed as “protect”. In addition, the “resistance to infection with Candida albicans” value in data set [5] is on record as “increased resistance”.
